pIC50: −log10 of the molar value.
Tests used:
[1] = biological target: T1, recombinant human Cox-1 (r-hu Cox1) (Homo sapiens, UniProt P23219); assay: Recombinant human PGHS-1 enzyme assay (RHUCX1); type: biochemical; conditions: for inhibition at 100 µM / inhibition at 200 µM: read-out: RHUCX1 % Inh. at Dose; for pIC50: read-out: RHUCX1 IC50 (parenthetical value)
T1 construct: made in house; host or cells: baculovirus/Sf9 insect cells (microsomes)
Outline: (§1)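 Recombinant enzyme reaction ran 2.5 minutes at room temperature, then was quenched with HCl and neutralized with NaOH. PGE2 formed with and without drug was quantified by EIA against standards in the same milieu. Percent inhibition versus control mean; IC50 by linear regression.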

[2] = biological target: T2, Human Whole Platelet Cyclooxygenase-1 (Homo sapiens, UniProt P23219); assay: Human Whole Platelet Cyclooxygenase-1 assay (HWPX); type: cell-based; conditions: for pIC50: read-out: HWPX IC50 (parenthetical value)
T2 construct: from tissue; host or cells: human blood: isolated platelets (A4) or heparinised whole blood (A9)
T2 sequence (P23219 24-599): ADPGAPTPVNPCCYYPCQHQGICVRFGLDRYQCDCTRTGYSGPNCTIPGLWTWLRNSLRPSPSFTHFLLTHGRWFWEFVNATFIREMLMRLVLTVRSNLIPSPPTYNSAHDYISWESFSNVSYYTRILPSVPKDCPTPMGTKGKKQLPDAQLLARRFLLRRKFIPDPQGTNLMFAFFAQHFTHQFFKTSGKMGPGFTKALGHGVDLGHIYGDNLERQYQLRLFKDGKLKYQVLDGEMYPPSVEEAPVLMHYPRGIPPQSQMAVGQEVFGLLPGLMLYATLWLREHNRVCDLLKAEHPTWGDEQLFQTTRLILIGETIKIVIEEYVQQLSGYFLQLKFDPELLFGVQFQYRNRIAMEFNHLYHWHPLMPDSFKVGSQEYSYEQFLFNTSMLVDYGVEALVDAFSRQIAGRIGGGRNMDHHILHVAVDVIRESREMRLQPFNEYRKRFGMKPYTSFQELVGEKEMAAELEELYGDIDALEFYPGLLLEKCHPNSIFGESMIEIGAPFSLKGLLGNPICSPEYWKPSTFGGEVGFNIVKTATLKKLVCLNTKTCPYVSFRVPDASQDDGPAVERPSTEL
Outline: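 Washed platelets from healthy-donor ACD blood were pre-incubated with compound for 10 min, then stimulated with calcium ionophore A23187 (8.8 μM final) for 10 min. Reaction stopped with cold 6 mM EDTA; thromboxane in supernatants quantified with a commercial kit.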

[3] = system: prostaglandin biosynthesis in vivo (pleural lavage eicosanoids); assay: Rat carrageenan pleural inflammation (CIP) model; conditions: for inhibition in vivo at 10 mg/kg: 4 h, read-out: CIP % Inhib. @ 10 mpk
Protocol: (§2) For oral administration, test compounds were suspended on the day of use in 100% polyethyleneglycol (PEG 400) with a motorized homogenizer equipped with a Teflon-coated pestle (TRI-R Instrument, Jamaica, N.Y.).
(§3) To compare the mean responses of the treatment groups, analysis of variance was applied. Percent inhibition values were determined by comparing the individual treatment mean values to the mean of the control group. Linear regression was used to estimate IC50's/ED50's in appropriate assays.
Pleural inflammation was induced in male adrenalectomized Sprague-Dawley rats following the method of Vinegar et al., Fed. Proc. 1976, 35, 2447-2456. Animals were orally dosed with experimental compounds, 30 minutes prior to the intrapleural injection of 2% lambda carrageenan (Sigma Chemical Co., St. Louis Mo.). Four hours later the animals were euthanized and the pleural cavities lavaged with ice cold saline. The lavage fluid was then added to two volumes of ice cold methanol (final methanol concentration 66%) to lyse cells and precipitate protein. Eicosanoids were determined by EIA as described above.

[4] = biological target: T3, recombinant human Cox-2 (r-hu Cox-2) (Homo sapiens, UniProt P35354); assay: Recombinant human PGHS-2 enzyme assay (RHUCX2); type: biochemical; conditions: for pIC50: read-out: RHUCX2 IC50 (parenthetical value)
T3 construct: made in house; host or cells: baculovirus/Sf9 insect cells (microsomes)
T3 sequence (P35354 18-604): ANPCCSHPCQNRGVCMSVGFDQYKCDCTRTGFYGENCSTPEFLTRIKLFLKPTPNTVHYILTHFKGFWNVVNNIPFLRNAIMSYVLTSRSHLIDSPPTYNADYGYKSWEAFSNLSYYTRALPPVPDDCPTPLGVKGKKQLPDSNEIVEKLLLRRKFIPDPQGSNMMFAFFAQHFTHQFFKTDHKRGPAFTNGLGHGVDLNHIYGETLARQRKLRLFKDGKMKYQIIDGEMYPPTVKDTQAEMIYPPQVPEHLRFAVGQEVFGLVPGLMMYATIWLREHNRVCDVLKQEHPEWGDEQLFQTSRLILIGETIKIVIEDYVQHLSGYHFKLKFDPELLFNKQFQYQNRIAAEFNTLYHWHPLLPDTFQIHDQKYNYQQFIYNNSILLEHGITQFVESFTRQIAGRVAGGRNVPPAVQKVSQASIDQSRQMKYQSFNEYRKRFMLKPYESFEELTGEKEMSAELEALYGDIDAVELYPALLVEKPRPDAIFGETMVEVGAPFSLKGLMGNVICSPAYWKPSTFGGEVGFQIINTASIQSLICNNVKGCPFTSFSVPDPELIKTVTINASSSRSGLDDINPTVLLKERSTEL
Outline: as §1

[5] = system: carrageenan induced paw edema; assay: Carrageenan induced paw edema (CPE) in rats; type: in vivo; conditions: 10 mpk oral, rat, 3 hours after carrageenan; read-out: CPE % Inhib. @ 10 mpk
Protocol: as §2, §3
Hingpaw edema was […] in male rats as described by Winter et al., Proc. Soc. Exp. Biol. Med., 1962, 111, 544. Briefly, male Sprague-Dawley rats weighing between 170 and 190 g were administered test compounds orally 1 hour prior to the subplantar injection of 0.1 ml of 1% sodium carrageenan (lambda carrageenan, Sigma Chemical Co., St Louis, Mo.) into the right hindpaw. Right paw volumes (ml) were measured immediately following injection of carrageenan for baseline volume measurements using a Buxco plethysmograph (Buxco Electronics, Inc., Troy, N.Y.). Three hours after the injection of carrageenan, right paws were remeasured and paw edema calculated for each rat by subtracting the zero time reading from the 3 hour reading. Data are reported as mean percent inhibition +/−SEM. Statistical significance of results was analyzed by Dunnetts multiple comparison test where p<0.05 was considered statistically significant.

[6] = biological target: T4, human amnionic whole cell cyclooxygenase-2 (WISH cells) (Homo sapiens, UniProt P35354); assay: IL-1β induced PGE2 production in WISH cells; type: cell-based; conditions: read-out: Wish IC50 (parenthetical value)
T4 construct: endogenous in cells; host or cells: human amnionic WISH cells, induced with IL-1beta
T4 sequence (P35354 18-604): T3 sequence (P35354 18-604)
Outline: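 Confluent (80%) WISH cells were stimulated with 5 ng/ml IL-1β in serum-free Neuman-Tytell medium, with or without test compound in DMSO (0.01% v/v). PGE2 in the culture medium was measured by EIA against standards prepared in the same medium, read by optical density.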

[7] = system: air pouch prostaglandin biosynthesis (Cox-2); assay: Carrageenan induced air pouch prostaglandin biosynthesis model (CAP); type: in vivo, rat; conditions: for inhibition in vivo at 3 mg/kg: 4 h, 3 mpk, rat, read-out: CAP % Inhib. @ 3 mpk; for ED50: Rattus norvegicus
Outline: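 Male Sprague Dawley rats with dorsal air pouches (20 mL air day 0, 10 mL day 3) received 0.2% lambda carrageenan in saline into the pouch on day 7. Compounds dosed at 0.1 to 10 mg/kg 30 min before carrageenan; pouch lavaged 4 h later, prostaglandins measured by EIA. Percent inhibition versus control mean; ED50 by linear regression.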

[8] = 0.1 μM, read-out: RHUCX2 % Inh. at Dose
[9] = 1 μM, read-out: RHUCX2 % Inh. at Dose
[10] = read-out: RHUCX2 % Inh. at Dose

T1 sequence (P23219 24-599): as the sequence (P23219 24-599) above

| SMILES | inhibition at 100 µM ([1]; 100 μM) [%] | pIC50 [2] | melting point [°C] | pIC50 [4] | pIC50 [6] | inhibition in vivo at 10 mg/kg ([3]; 10 mpk oral) [%] | inhibition in vivo at 10 mg/kg [5] [%] | inhibition in vivo at 3 mg/kg [7] [%] | also measured |
| --- | --- | --- | --- | --- | --- | --- | --- | --- | --- |
| CS(=O)(=O)c1ccc(-c2cnn(Cc3ccccc3)c(=O)c2-c2ccc(F)cc2)cc1 [Example 10, 2-Benzyl-4-(4-fluorophenyl)-5-[4-(methylsulfonyl)phenyl]-3(2H)-pyridazinone] | 2 | 5.39 | 101 to 103 | – | – | 44 | – | – | – |
| CS(=O)(=O)c1ccc(-c2cnn(-c3ccccc3)c(=O)c2-c2ccc(F)cc2)cc1 [Example 12, 2-Phenyl-4-(4-fluorophenyl)-5-[4-(methylsulfonyl)phenyl]-3(2H)-pyridazinone] | 0 | – | 219 to 220 | – | – | 42 | 25 | – | inhibition at 0.1 µM [4, 8]: 9%; inhibition at 1 µM [4, 9]: 77%; inhibition at 10 µM ([4]; 10 μM, read-out: RHUCX2 % Inh. at Dose): 97% |
| CS(=O)(=O)c1ccc(-c2cnn(CC(F)(F)F)c(=O)c2-c2ccc(F)cc2)cc1 [Example 34, 2-(2,2,2-Trifluoroethyl)-4-(4-fluorophenyl)-5-[4-(methylsulfonyl)-phenyl]-3(2H)-pyridazinone] | 16 | – | 177 to 179 | 6.04 | – | 36 | 31 | – | – |
| CS(=O)(=O)c1ccc(-c2cnn(CC(F)(F)F)c(=O)c2-c2ccc(F)c(Cl)c2)cc1 [Example 54, 2-(2,2,2-Trifluoroethyl)-4-(3-chloro-4-fluorophenyl)-5-[4-(methylsulfonyl)phenyl]-3(2H)-pyridazinone] | 0 | – | 165 to 166 | – | – | 31 | 30 | – | inhibition at 0.1 µM [4, 8]: 58%; inhibition at 1 µM [4, 9]: 95% |
| CS(=O)(=O)c1ccc(-c2cnn(CC(F)(F)F)c(=O)c2-c2ccc(Cl)c(F)c2)cc1 [Example 67] | – | – | – | – | – | – | – | – | CIP % Inhib. ([3]; 3 mpk oral): 40 @ 3 mpk % |
| CS(=O)(=O)c1ccc(-c2cnn(-c3cc(F)cc(F)c3)c(=O)c2-c2ccc(F)cc2)cc1 [Example 180] | – | – | – | – | – | – | – | – | RHUCX1 % Inh. at Dose (μM) ([1]; 100 μM): 8 @ 100%; RHUCX2 % Inh. at Dose (μM) ([4]; 0.1 μM): 48 @ 0.1%; RHUCX2 % Inh. at Dose (μM) ([4]; 1 μM): 78 @ 1%; CIP % Inhib. @ 10 mpk ([3]; 10 mpk oral): 34.5% |
| CC(C)CCOc1c(-c2ccc(S(N)(=O)=O)cc2)cnn(-c2ccc(F)c(F)c2)c1=O [Example 445, 2-(3,4-Difluorophenyl)-4-(3-methyl-1-butoxy)-5-[4-(aminosulfonyl)phenyl]-3(2H)-pyridazinone] | – | – | 149 to 151 | 7.16 | 7.60 | – | 15 | 73 | pIC50 [1]: 4.25; inhibition at 10 µM ([2]; 10 μM, read-out: HWPX % Inhib. at Dose): 22%; inhibition at 100 µM ([2]; 100 μM, read-out: HWPX % Inhib. at Dose): 100% |

The next lines start with results.

| inhibition at 100 µM ([1]; 100 μM) [%] | pIC50 [2] | melting point [°C] | pIC50 [4] | pIC50 [6] | SMILES | inhibition in vivo at 10 mg/kg ([3]; 10 mpk oral) [%] | inhibition in vivo at 10 mg/kg [5] [%] | inhibition in vivo at 3 mg/kg [7] [%] | also measured |
| --- | --- | --- | --- | --- | --- | --- | --- | --- | --- |
| 11 | – | 109 to 111 | – | – | CC(C)Oc1c(-c2ccc(S(C)(=O)=O)cc2)cnn(Cc2ccccc2)c1=O [Example 74, 2-Benzyl-4-(2-propoxy)-5-[4-(methylsulfonyl)phenyl]-3(2H)-pyridazinone] | 46.5 | 18 | – | – |
| 3 | 5.03 | 210 to 212 | 6.70 | 7.70 | CS(=O)(=O)c1ccc(-c2cnn(-c3cccc(Br)c3)c(=O)c2-c2ccc(F)cc2)cc1 [Example 166, 2-(3-Bromophenyl)-4-(4-fluorophenyl)-5-[4-(methylsulfonyl)phenyl]-3(2H)-pyridazinone] | 40 | – | 59 | – |
| – | 6.04 | 169 to 171 | – | 7.74 | CC(C)COc1c(-c2ccc(S(N)(=O)=O)cc2)cnn(-c2ccc(F)c(F)c2)c1=O [Example 403, 2-(3,4-Difluorophenyl)-4-(2-methylpropoxy)-5-[4-(aminosulfonyl)phenyl]-3(2H)-pyridazinone] | – | 43 | 68.5 | pIC50 [1]: 3.82; inhibition at 0.01 µM [4, 10]: 36%; inhibition at 0.1 µM [4, 8]: 64%; inhibition at 1 µM [4, 9]: 92%; ED50 [7]: 0.35 mg/kg |
| 23 | 5.79 | 173 to 175 | – | 7.59 | CC(C)(C)COc1c(-c2ccc(S(N)(=O)=O)cc2)cnn(-c2ccc(F)c(F)c2)c1=O [Example 406, 2-(3,4-Difluorophenyl)-4-(2,2-dimethylpropoxy)-5-[4-(aminosulfonyl)phenyl]-3(2H)-pyridazinone] | – | 23 | 66.5 | inhibition at 0.01 µM [4, 10]: 18%; inhibition at 0.1 µM [4, 8]: 64%; inhibition at 1 µM [4, 9]: 100% |
| – | 4.61 | 123 to 124 | 6.43 | 7.70 | CC(C)(C)COc1c(-c2ccc(S(N)(=O)=O)cc2)cnn(CC(F)(F)F)c1=O [Example 446] | – | 44 | 92 | inhibition at 200 µM [1]: 0%; ED50 [7]: 0.5 mg/kg |
| – | 4.40 | 170 to 172 | 6.89 | 7.05 | CC(C)COc1c(-c2ccc(S(N)(=O)=O)cc2)cnn(CC(F)(F)F)c1=O [Example 449, 2-(2,2,2-Trifluoroethyl)-4-(2-methylpropoxy)-5-[4-(aminosulfonyl)phenyl]-3(2H)-pyridazinone] | – | 23 | 76 | inhibition at 200 µM [1]: 5%; ED50 [7]: 1.8 mg/kg |
| 33 | 6.30 | 155 to 158 | 6.09 | 6.97 | CC(C)(O)COc1c(-c2ccc(S(N)(=O)=O)cc2)cnn(-c2ccc(F)cc2)c1=O [Example 478, 2-(4-Fluorophenyl)-4-(2-hydroxy-2-methyl-1-propoxy)-5-[4-(aminosulfonyl)phenyl]-3(2H)-pyridazinone] | – | 26 | 75 | – |

— patent publication US20020028938A1, “Prostaglandin endoperoxide H synthase biosynthesis inhibitors” (priority 1997, published 2002)
